Data set [1] concerns the target T1, human TLR8 (Homo sapiens, UniProt Q9NR97).
T1 construct: host or cells: HEK293 (HEK-Blue hTLR8)
T1 sequence (Q9NR97 27-1041): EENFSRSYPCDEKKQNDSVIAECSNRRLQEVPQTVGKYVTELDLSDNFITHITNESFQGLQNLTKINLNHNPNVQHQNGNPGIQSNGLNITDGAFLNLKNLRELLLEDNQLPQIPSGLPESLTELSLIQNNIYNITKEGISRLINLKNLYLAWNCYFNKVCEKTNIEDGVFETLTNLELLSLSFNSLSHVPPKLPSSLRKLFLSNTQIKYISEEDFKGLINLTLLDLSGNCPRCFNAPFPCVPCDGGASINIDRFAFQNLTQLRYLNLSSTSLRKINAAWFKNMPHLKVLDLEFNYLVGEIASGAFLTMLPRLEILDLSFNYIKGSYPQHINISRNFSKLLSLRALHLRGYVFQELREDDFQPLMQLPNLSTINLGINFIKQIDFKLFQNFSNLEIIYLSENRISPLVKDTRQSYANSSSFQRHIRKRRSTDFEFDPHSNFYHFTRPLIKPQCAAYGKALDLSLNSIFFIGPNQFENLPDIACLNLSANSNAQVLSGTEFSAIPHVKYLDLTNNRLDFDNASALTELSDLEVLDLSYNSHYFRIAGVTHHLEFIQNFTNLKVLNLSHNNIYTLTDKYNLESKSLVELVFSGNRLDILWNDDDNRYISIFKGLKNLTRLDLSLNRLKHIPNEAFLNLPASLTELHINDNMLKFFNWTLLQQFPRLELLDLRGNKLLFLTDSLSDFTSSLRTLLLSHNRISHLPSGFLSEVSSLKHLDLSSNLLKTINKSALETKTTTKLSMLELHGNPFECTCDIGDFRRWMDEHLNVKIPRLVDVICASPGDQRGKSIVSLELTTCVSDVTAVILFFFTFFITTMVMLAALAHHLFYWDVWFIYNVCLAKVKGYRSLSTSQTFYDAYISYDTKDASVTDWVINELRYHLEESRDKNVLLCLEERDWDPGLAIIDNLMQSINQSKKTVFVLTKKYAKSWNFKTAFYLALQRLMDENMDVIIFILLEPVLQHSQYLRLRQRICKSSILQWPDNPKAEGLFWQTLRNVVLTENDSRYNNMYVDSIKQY
Briefly: HEK293-Blue-hTLR-8 cells assay. Format: cell-based. Particulars: HEK293-Blue-hTLR8 cells, R848 stimulation, 20 hrs; read-out: HEK/hTLR8 IC50. The source says:
A stable HEK293-Blue-hTLR-8 cell line was purchased from InvivoGen (Cat. #: hkb-htlr8, San Diego, California, USA). These cells were originally designed for studying the stimulation of human TLR8 by monitoring the activation of NF-κB. A SEAP (secreted embryonic alkaline phosphatase) reporter gene was placed under the control of the IFN-β minimal promoter fused to five NF-κB and AP-1-binding sites. The SEAP was induced by activating NF-κB and AP-1 via stimulating HEK-Blue hTLR8 cells with TLR8 ligands. Therefore the reporter expression was declined by TLR8 antagonist under the stimulation of a ligand, such as R848, for incubation of 20 hrs. The cell culture supernatant SEAP reporter activity was determined using QUANTT-BlueTv™ kit (Cat. #: rep-qbl, Invivogen, San Diego, Ca, USA) at a wavelength of 640 nm, a detection medium that turns purple or blue in the presence of alkaline phosphatase.
HEK293-Blue-hTLR8 cells were incubated at a density of 250,000˜450,000 cells/mL in a volume of 170 μL in a 96-well plate in Dulbecco's Modified Eagle's medium (DMEM) containing 4.5 g/L glucose, 50 U/mi penicillin, […] streptomycin, […], 2 mM L-glutamine, 10% (v/v) heat-inactivated fetal bovine serum with addition of 20 μL test compound in a serial dilution in the presence of final DMSO at 1% and 10 μL of 60 μM R848 in above DMEM, perform incubation under 37° C. in a CO2 incubator for 20 hrs. Then 20 μL of the supernatant from each well was incubated with 180 μL Quanti-blue substrate solution at 37° C. for 2 hrs and the absorbance was read at 620-655 nm using a spectrophotometer. The signaling pathway that TLR8 activation leads to downstream NF-κB activation has been widely accepted, and therefore similar reporter assay was modified for evaluating TLR8 antagonist.

Data set [2] can be described thus: Human microsome stability assay. Format: in vitro ADME. Particulars: 1 μM test compound, 0.5 mg/mL liver microsomal protein, 37° C. As for the experimental part:
The human microsomal stability assay is used for early assessment of metabolic stability of a test compound in human liver microsomes.
Human liver microsomes (Cat. NO.: 452117, Corning, USA; Cat. NO.:H2610, Xenotech, USA) were preincubated with test compound for 10 minutes at 37° C. in 100 mM potassium phosphate buffer, pH 7.4. The reactions were initiated by adding NADPH regenerating system.
The final incubation mixtures contained 1 μM test compound, 0.5 mg/mL liver microsomal protein, 1 mM MgCl2, 1 mM NADP, 1 unit/mL isocitric dehydrogenase and 6 mM isocitric acid in 100 mM potassium phosphate buffer, pH 7.4. After incubation times of 0, 3, 6, 9, 15 and 30 minutes at 37° C., 300 μL of cold acetonitrile (including internal standard) was added to 100 μL incubation mixture to terminate the reaction. Following precipitation and centrifugation, the amount of compound remaining in the samples were determined by LC-MS/MS. Controls of no NADPH regenerating system at zero and 30 minutes were also prepared and analyzed.
(Liver microsomes are vesicles of endoplasmic reticulum, rich in cytochrome P450 enzymes.)

Consider `Cc1cc(N2CCNCC2)cnc1C1CCN(c2ccnc3c2cnn3C)CC1` [Example 5, 1-methyl-4-[4-(3-methyl-5-piperazin-1-yl-2-pyridyl)-1-piperidyl]pyrazolo[3,4-b]pyridine], for which, in data set [1], the IC50 came out at 0.064 µM. In data set [2], the “Clearance of Human microsome” value is listed as 9.1 mL/min/kg.
Taken in the same sequence, the figures for `Cc1cc(N2CCNCC2)ncc1C1CCN(c2ccnc3c2cnn3C)CC1` [Example 6, 1-methyl-4-[4-(4-methyl-6-piperazin-1-yl-3-pyridyl)-1-piperidyl]pyrazolo[3,4-b]pyridine] were 0.037 µM and 9.3 mL/min/kg.
The like results for `Cc1cc(N2CCC(c3ncc(N4CCNCC4)cc3C)CC2)c2cnn(C)c2n1` [Example 7, 1,6-dimethyl-4-[4-(3-methyl-5-piperazin-1-yl-2-pyridyl)-1-piperidyl]pyrazolo[3,4-b]pyridine] were, in that order, 0.029 µM and 6.2 mL/min/kg.
`CCc1cc(N2CCNCC2)cnc1C1CCN(c2cc(C)nc3c2cnn3C)CC1` [Example 13, 4-[4-(3-ethyl-5-piperazin-1-yl-2-pyridyl)-1-piperidyl]-1,6-dimethyl-pyrazolo[3,4-b]pyridine]: the IC50 in data set [1] was found to be 0.044 µM. In data set [2], the “Clearance of Human microsome” value is given as 7.2 mL/min/kg.
Taken in the same sequence, the figures for `COc1cc(N2CCNCC2)cnc1C1CCN(c2cc(C)nc3c2cnn3C)CC1` [Example 14, 4-[4-(3-methoxy-5-piperazin-1-yl-2-pyridyl)-1-piperidyl]-1,6-dimethyl-pyrazolo[3,4-b]pyridine] were 0.013 µM and 6.7 mL/min/kg.
Taken in the same sequence, the figures for `Cc1cc(N2CC[C@@H](c3ncc(N4CC5(CNCCO5)C4)cc3C)[C@H](C)C2)c2cnn(C)c2n1` [Example 27, 2-[6-[(3S,4R)-1-(1,6-dimethylpyrazolo[3,4-b]pyridin-4-yl)-3-methyl-4-piperidyl]-5-methyl-3-pyridyl]-5-oxa-2,8-diazaspiro[3.5]nonane] were 0.007 µM and 9.1 mL/min/kg.
For the compound `Cc1cc(N2CC[C@@H](c3ncc(N4CCOC[C@@H](N)C4)cc3C)[C@H](C)C2)c2cnn(C)c2n1` [Example 28, (6S)-4-[6-[(3S,4R)-1-(1,6-dimethylpyrazolo[3,4-b]pyridin-4-yl)-3-methyl-4-piperidyl]-5-methyl-3-pyridyl]-1,4-oxazepan-6-amine], the IC50 in data set [1] turned out to be 0.002 µM. The “Clearance of Human microsome” value in data set [2] is listed as 6.2 mL/min/kg.
The like results for `COC[C@H]1CN(c2cnc([C@@H]3CCN(c4cc(C)nc5c4cnn5C)C[C@H]3C)c(C)c2)CCN1` [Example 29, 4-[(3S,4R)-4-[5-[(3R)-3-(methoxymethyl)piperazin-1-yl]-3-methyl-2-pyridyl]-3-methyl-1-piperidyl]-1,6-dimethyl-pyrazolo[3,4-b]pyridine] were, in that order, 0.008 µM and 6.8 mL/min/kg.
Taken in the same sequence, the figures for `Cc1cc(N2CC[C@@H](c3ncc(N4CC(C)(N)C4)cc3C)[C@H](C)C2)c2cnn(C)c2n1` [Example 32, 1-[6-[(3S,4R)-1-(1,6-dimethylpyrazolo[3,4-b]pyridin-4-yl)-3-methyl-4-piperidyl]-5-methyl-3-pyridyl]-3-methyl-azetidin-3-amine] were 0.015 µM and 8.8 mL/min/kg.
Regarding `Cc1cc(N2CC[C@@H](c3ncc(N4C[C@H]5NCCO[C@@H]5C4)cc3C)[C@H](C)C2)c2cnn(C)c2n1` [Example 33, (4aR,7aR)-6-[6-[(3S,4R)-1-(1,6-dimethylpyrazolo[3,4-b]pyridin-4-yl)-3-methyl-4-piperidyl]-5-methyl-3-pyridyl]-3,4,4a,5,7,7a-hexahydro-2H-pyrrolo[3,4-b][1,4]oxazine], the IC50 in data set [1] came to 0.003 µM. The “Clearance of Human microsome” value in data set [2] came to 6.2 mL/min/kg.
The like results for `Cc1cc(N2CC[C@@H](c3ccc(N4CCNCC4)cn3)[C@H](C)C2)c2cnn(C)c2n1` [Example 34, 1,6-dimethyl-4-[(3S,4R)-3-methyl-4-(5-piperazin-1-yl-2-pyridyl)-1-piperidyl]pyrazolo[3,4-b]pyridine] were, in that order, 0.011 µM and 9.8 mL/min/kg.
The like results for `Cc1cc(N2CC[C@H](c3ccc(N4CCNCC4)cn3)[C@@H](C)C2)c2cnn(C)c2n1` [Example 35, 1,6-dimethyl-4-[(3R,4S)-3-methyl-4-(5-piperazin-1-yl-2-pyridyl)-1-piperidyl]pyrazolo[3,4-b]pyridine] were, in that order, 0.009 µM and 6.2 mL/min/kg.
Take `COC[C@H]1CN(c2ccc([C@H]3CCN(c4cc(C)nc5c4cnn5C)C[C@@H]3C)nc2)CCN1` [Example 37, 4-[(3R,4S)-4-[5-[(3R)-3-(methoxymethyl)piperazin-1-yl]-2-pyridyl]-3-methyl-1-piperidyl]-1,6-dimethyl-pyrazolo[3,4-b]pyridine]: in data set [1], the IC50 came out at 0.013 µM. Also, in data set [2], the “Clearance of Human microsome” value is listed as 6.2 mL/min/kg.
`Cc1cc(N2CC[C@H](c3ccc(N4CC5(CNCCO5)C4)cn3)[C@@H](C)C2)c2cnn(C)c2n1` [Example 38, 2-[6-[(3R,4S)-1-(1,6-dimethylpyrazolo[3,4-b]pyridin-4-yl)-3-methyl-4-piperidyl]-3-pyridyl]-5-oxa-2,8-diazaspiro[3.5]nonane]: the IC50 in data set [1] came out at 0.011 µM. In data set [2], the “Clearance of Human microsome” value amounted to 7.8 mL/min/kg.
Taken in the same sequence, the figures for `CO[C@H]1CN(c2ccc([C@H]3CCN(c4cc(C)nc5c4cnn5C)C[C@@H]3C)nc2)CC[C@@H]1N` [Example 39, (3S,4S)-1-[6-[(3R,4S)-1-(1,6-dimethylpyrazolo[3,4-b]pyridin-4-yl)-3-methyl-4-piperidyl]-3-pyridyl]-3-methoxy-piperidin-4-amine] were 0.01 µM and 6.7 mL/min/kg.
Regarding `Cc1cc(N2CC[C@H](c3ccc(N4CCOC[C@@H](N)C4)cn3)[C@@H](C)C2)c2cnn(C)c2n1` [Example 40, (6S)-4-[6-[(3R,4S)-1-(1,6-dimethylpyrazolo[3,4-b]pyridin-4-yl)-3-methyl-4-piperidyl]-3-pyridyl]-1,4-oxazepan-6-amine], in data set [1], the IC50 came out at 0.007 µM. In addition, the “Clearance of Human microsome” value in data set [2] amounted to 8.1 mL/min/kg.
With `Cc1cc(N2CC[C@H](c3ccc(N4CC[C@@H](N)[C@H](F)C4)cn3)[C@@H](C)C2)c2cnn(C)c2n1` [Example 41, (3R,4R)-1-[6-[(3R,4S)-1-(1,6-dimethylpyrazolo[3,4-b]pyridin-4-yl)-3-methyl-4-piperidyl]-3-pyridyl]-3-fluoro-piperidin-4-amine], the IC50 in data set [1] stood at 0.01 µM. Further, in data set [2], the “Clearance of Human microsome” value is reported as 7.2 mL/min/kg.
